Paper PMC9995496, “A screen for MeCP2-TBL1 interaction inhibitors using a luminescence-based assay” (Scientific Reports, 2023)
Where a name gives a salt, the structure may show the parent alone. Read-outs that look alike come from different tables or passages of the source. Square brackets hold non-standard residues; d marks the D form. Peptide text beside a SMILES is read from it. * marks the point of attachment. ξ: configuration not given here. Nva = CCC[C@H](N)C(=O)O; Cbz = O=C(OCc1ccccc1)*; ξL = CC(C)CC(N)C(=O)O; ξM = CSCCC(N)C(=O)O

System: PRKACA-PRKAR2A interaction (SmBiT-PRKACA / LgBiT-PRKAR2A), protein kinase A
Set-up: NanoLuc complementation counter-screen in cell extract, PRKACA with PRKAR2A, loss of luminescence, detects NanoLuc interference
Conditions: counter-screen for NanoLuc interference, 0.5 h, 20 µM, inhibitor

| Structure (SMILES) | Inh (PKA) | Inh (PKA) (Inh (PKA)) |
| --- | --- | --- |
| CN[C@H]1C[C@@H](N)[C@H](O)[C@@H](O[C@@H]2O[C@H](CO)[C@H](O)[C@@H]3OC4(O[C@H]23)O[C@H]([C@@H](N)CO)[C@H](O)[C@H](O)[C@H]4O)[C@@H]1O (some centres unmarked) [UM0141464:01, Hygromycin B] | 0.3498% |  |
| NC[C@H]1O[C@H](O[C@H]2[C@H](O)[C@@H](O[C@H]3O[C@H](CO)[C@@H](O)[C@H](N)[C@H]3O)[C@H](N)C[C@@H]2N)[C@H](O)[C@@H](O)[C@@H]1O [UM0141465:01, Kanamycin Sulfate] | 1.064% |  |
| Cc1cc2c(F)c(Oc3ncnn4cc(OC[C@@H](C)O)c(C)c34)ccc2[nH]1 [UM0141474:01, Brivanib (BMS-540215)] | 42.48% |  |
| Cc1cc2c(F)c(Oc3ncnn4cc(OC[C@@H](C)OC(=O)[C@H](C)N)c(C)c34)ccc2[nH]1 [UM0141479:01, Brivanib Alaninate (BMS-582664)] | 33.56% |  |
| Nc1nc(N)c2nc(-c3cccc(O)c3)c(-c3cccc(O)c3)nc2n1 [UM0141482:01, TG100-115] | 37.25% |  |
| CN(C)CCN1C(=O)c2cccc3cc(N)cc(c23)C1=O [UM0141483:01, Amonafide] | 12.14% |  |
| O=C(Nc1cccc(Nc2ncc(Br)c(NCCc3cnc[nH]3)n2)c1)N1CCCC1 [UM0141484:01, BX-912] | 45.28% |  |
| Cc1c(NC(=O)OC[C@@H]2COCCN2)cn2ncnc(Nc3ccc4c(cnn4Cc4cccc(F)c4)c3)c12 [UM0141485:01, AC480 (BMS-599626)] | 24.24% |  |
| NCC(=O)Nc1ccc(-n2nc(C(F)(F)F)cc2-c2ccc3c(ccc4ccccc43)c2)cc1 [UM0141487:01, OSU-03012 (AR-12)] | 5.116% |  |
| Cc1ccc(F)c(NC(=O)Nc2ccc(-c3cccc4[nH]nc(N)c34)cc2)c1 [UM0141489:01, Linifanib (ABT-869)] | 45.3% |  |
| COc1cc2c(Oc3ccc(NC(=O)C4(C(=O)Nc5ccc(F)cc5)CC4)cc3F)ccnc2cc1OCCCN1CCOCC1 [UM0141490:01, Foretinib (GSK1363089)] | 3.567% |  |
| COc1cc2nccc(Oc3ccc(NC(=O)C4(C(=O)Nc5ccc(F)cc5)CC4)cc3)c2cc1OC [UM0141491:01, Cabozantinib (XL184, BMS-907351)] |  | 10.46% |
| C=CC(=O)N1CCC[C@@H](n2nc(-c3ccc(Oc4ccccc4)cc3)c3c(N)ncnc32)C1 [UM0141493:01, PCI-32765 (Ibrutinib)] | 23.88% |  |
| CC1(C)CCC(c2ccc(Cl)cc2)=C(CN2CCN(c3ccc(C(=O)NS(=O)(=O)c4ccc(N[C@H](CCN5CCOCC5)CSc5ccccc5)c(S(=O)(=O)C(F)(F)F)c4)cc3)CC2)C1 [UM0141497:01, ABT-263 (Navitoclax)] | -0.2397% |  |
| C[C@@H](N)[C@H]1CC[C@H](C(=O)Nc2ccncc2)CC1 [UM0141498:01, Y-27632 dihydrochloride] |  | -3.616% |
| C[C@@H](N)[C@H]1CC[C@H](C(=O)Nc2ccncc2)CC1 [UM0141498:02, Y-27632] |  | -5.28% |
| Cc1cnc(-c2cnc(NCCNc3ccc(C#N)cn3)nc2-c2ccc(Cl)cc2Cl)[nH]1 [UM0141499:01, CHIR-99021 (CT99021)] | 50.27% |  |
| N#CC[C@H](C1CCCC1)n1cc(-c2ncnc3[nH]ccc23)cn1 [UM0141500:01, Ruxolitinib (INCB018424)] |  | 28.73% |
| CCN1CCN(c2ccc(Nc3cc(N(C)C(=O)Nc4c(Cl)c(OC)cc(OC)c4Cl)ncn3)cc2)CC1 [UM0141502:01, BGJ398] | -0.1399% |  |
| Nc1cc(C(F)(F)F)c(-c2cc(N3CCOCC3)nc(N3CCOCC3)n2)cn1 [UM0141503:01, BKM120] | 7.459% |  |
| C[C@@H](Oc1cc(-c2cnn(C3CCNCC3)c2)cnc1N)c1c(Cl)ccc(F)c1Cl [UM0141505:01, (R)-Crizotinib] | 10.35% |  |
| Nc1ncnc2c1c(I)cn2[C@@H]1O[C@H](CO)[C@@H](O)[C@H]1O [UM0141507:01, 5-Iodotubercidin] | 18.13% |  |
| O=C(NC[C@@H]1CN(c2ccc(N3CCOCC3=O)cc2)C(=O)O1)c1ccc(Cl)s1 [UM0141508:01, 5-R-Rivaroxaban] | 3.342% |  |

Second part, the compound after the results:

| Inh (PKA) | Inh (PKA) (Inh (PKA)) | Structure (SMILES) |
| --- | --- | --- |
| 3.507% |  | CC(C)(F)C[C@H](N[C@@H](c1ccc(-c2ccc(S(C)(=O)=O)cc2)cc1)C(F)(F)F)C(=O)NC1(C#N)CC1 [UM0141461:01, Odanacatib (MK-0822)] |
| 1.727% |  | Nc1nc(=O)c2c([nH]1)NCC(CNc1ccc(C(=O)N[C@@H](CCC(=O)O)C(=O)O)cc1)N2C=O (some centres unmarked) [UM0141462:01, Leucovorin Calcium] |
| 18.25% |  | Cc1ccc(Sc2ccccc2N2CCNCC2)c(C)c1 [UM0141466:01, Vortioxetine (Lu AA21004) HBr] |
| 0.9653% |  | CC(=O)N[C@@H](CC(C)C)C(=O)N[C@@H](CC(C)C)C(=O)N[C@H](C=O)CCCNC(=N)N [UM0141467:01, Leupeptin, Microbial] |
| 1.556% |  | CC(C)C[C@H](NC(=O)[C@@H](O)[C@H](N)Cc1ccccc1)C(=O)O [UM0141468:01, Bestatin] |
| 1.977% |  | CNC(=O)[C@H](Cc1ccccc1)NC(=O)[C@H](CC(C)C)[C@H](CSc1cccs1)C(=O)NO [UM0141470:01, Batimastat (BB-94)] |
| 6.639% |  | CC(C)C[C@@H](C=O)NC(=O)[C@H](CC(C)C)NC(=O)[C@H](CC(C)C)NC(=O)OCc1ccccc1 [UM0141471:01, MG-132] (Cbz-Leu-Leu-Leu-aldehyde) |
| 1.385% |  | CSCCC(C=O)NC(=O)C(CC(C)C)NC(=O)[C@H](CC(C)C)NC(C)=O (some centres unmarked) [UM0141476:01, Calpain Inhibitor II, ALLM] (Ac-Leu-[ξL]-[ξM]-aldehyde) |
| 1.438% |  | CC[C@H](C)[C@H](NC(=O)[C@H]([C@@H](C)CC)N(C)C(C)=O)C(=O)N[C@H](C(=O)N[C@@H](CC(C)C)C(=O)[C@@]1(C)CO1)[C@@H](C)O [UM0141477:01, Epoxomicin] |
| 4.161% |  | CCC[C@@H](C=O)NC(=O)[C@H](CC(C)C)NC(=O)[C@H](CC(C)C)NC(=O)OCc1ccccc1 [UM0141478:01, MG-115] (Cbz-Leu-Leu-[Nva]-aldehyde) |
| 12.93% |  | CC(C)(CO)c1cc2cc(NC(=O)C3(c4ccc5c(c4)OC(F)(F)O5)CC3)c(F)cc2n1C[C@@H](O)CO [UM0141480:01, VX-661] |
| 45.75% |  | Cc1cc(C(C)Nc2ccccc2)c2nc(N3CCOCC3)cc(=O)n2c1 (centres unmarked) [UM0141481:01, TGX-221] |
| 39.72% |  | O=C(Nc1ccc(OC(F)(F)F)cc1)c1sccc1NCc1ccnc2ccccc12 [UM0141486:01, OSI-930] |
| 7.116% |  | NC(=O)Cc1cccc(C(=O)c2ccccc2)c1N [UM0141488:01, Nepafenac] |
| 2.676% |  | CCN(CC)C(=O)c1ccc(C2=CC3(CCNCC3)Oc3cccc(O)c32)cc1 [UM0141492:01, ADL5859 HCl] |
| 7.222% |  | CC[C@H](Nc1ncnc2[nH]cnc12)c1nc2cccc(F)c2c(=O)n1-c1ccccc1 [UM0141495:01, CAL-101 (Idelalisib, GS-1101)] |
| 42.22% |  | CC(C)NC[C@@H](C(=O)N1CCN(c2ncnc3c2[C@H](C)C[C@H]3O)CC1)c1ccc(Cl)cc1 [UM0141496:01, GDC-0068 (RG7440)] |
| 0.8145% |  | CN[C@@H](C)C(=O)N[C@H]1CN(C(=O)CC(C)C)CC[C@H]2CC[C@@H](C(=O)NC(c3ccccc3)c3ccccc3)N2C1=O [UM0141504:01, AT-406 (SM-406)] |
